Measured values reported in patent US20210395256A1, “TYROSINE KINASE INHIBITORS, COMPOSITIONS AND METHODS THERE OF” (Betta Pharmaceuticals Co., Ltd., priority 2018, published 2021).

Each compound was assayed against TrkA kinase (Homo sapiens, UniProt P04629) (assay: TrkA kinase assay (mobility shift assay)). Details: class symbols; read-out: Trk A Kinase IC50.
Format: biochemical
Experimental: Example 201 TrkA Kinase Assay
Mobility shift assay was used to determine the inhibitory activity of compounds against TrkA kinase. Assay procedures are as follows:
1× Kinase base buffer (50 mM HEPES, pH 7.5; 0.0015% Brij-35)
Stop buffer (100 mM HEPES, pH 7.5; 0.015% Brij-35; 0.2% Coating Reagent #3; 50 mM EDTA)
1) Dilute the compound to 50× of the final desired highest inhibitor concentration in reaction by 100% DMSO. Transfer 100 μl of this compound dilution to a well in a 96-well plate.
2) For all compounds, transfer the compound in tubes to one well on 96-well storage plate and serially dilute the compound by transferring 30 μl to 60 μl of 100% DMSO in the next well and so forth for a total of 10 concentrations.
3) Add 100 μl of 100% DMSO to two empty wells for no compound control and no enzyme control in the same 96-well plate. Mark the plate as source plate.
4) Prepare intermediate plate
Transfer 10 μl of compound from source plate to a new 96-well plate as the intermediate plate
Add 90 µl of 1× kinase buffer to each well of the intermediate plate.
Mix the compounds in intermediate plate for 10 min on shaker.
1) Transfer 5 μl of each well from the 96-well intermediate plate to a 384-well plate in duplicates. For example, A1 of the 96-well plate is transferred to A1 and A2 of the 384-well plate. A2 of the 96-well plate is transferred to A3 and A4 of the 384-well plate, and so on.
1) Prepare 2.5× enzyme solution
Add kinase in 1× kinase base buffer.
2) Prepare 2.5× peptide solution Add FAM-labeled peptide and ATP in the 1× kinase base buffer.
3) Assay plate already contains 5 μl of compound in 10% DMSO.
4) Transfer 2.5× enzyme solution to the assay plate
Add 10 μl of 2.5× enzyme solution to each well of the 384-well assay plate.
5) Incubate at room temperature for 10 min.
6) Transfer 2.5× peptide solution to the assay plate
Add 10 μl of 2.5× peptide solution to each well of the 384-well assay plate.
Kinase reaction conditions are shown as Table 11:
7) Kinase reaction and stop
Incubate at 28° C. for specified period of time.
Add 25 μl of stop buffer to stop reaction.
1) Copy conversion data from Caliper program.
2) Convert conversion values to inhibition values.
Percent inhibition=(max-conversion)/(max-min)*100.
“max” stands for DMSO control; “min” stands for low control.
3) Fit the data in XLFit excel add-in version 5.4.0.8 to obtain IC50 values.
Equation used is: Y=Bottom+(Top-Bottom)/(1+(IC50/X)^HillSlope)

Chain of TrkA kinase (P04629 33-796): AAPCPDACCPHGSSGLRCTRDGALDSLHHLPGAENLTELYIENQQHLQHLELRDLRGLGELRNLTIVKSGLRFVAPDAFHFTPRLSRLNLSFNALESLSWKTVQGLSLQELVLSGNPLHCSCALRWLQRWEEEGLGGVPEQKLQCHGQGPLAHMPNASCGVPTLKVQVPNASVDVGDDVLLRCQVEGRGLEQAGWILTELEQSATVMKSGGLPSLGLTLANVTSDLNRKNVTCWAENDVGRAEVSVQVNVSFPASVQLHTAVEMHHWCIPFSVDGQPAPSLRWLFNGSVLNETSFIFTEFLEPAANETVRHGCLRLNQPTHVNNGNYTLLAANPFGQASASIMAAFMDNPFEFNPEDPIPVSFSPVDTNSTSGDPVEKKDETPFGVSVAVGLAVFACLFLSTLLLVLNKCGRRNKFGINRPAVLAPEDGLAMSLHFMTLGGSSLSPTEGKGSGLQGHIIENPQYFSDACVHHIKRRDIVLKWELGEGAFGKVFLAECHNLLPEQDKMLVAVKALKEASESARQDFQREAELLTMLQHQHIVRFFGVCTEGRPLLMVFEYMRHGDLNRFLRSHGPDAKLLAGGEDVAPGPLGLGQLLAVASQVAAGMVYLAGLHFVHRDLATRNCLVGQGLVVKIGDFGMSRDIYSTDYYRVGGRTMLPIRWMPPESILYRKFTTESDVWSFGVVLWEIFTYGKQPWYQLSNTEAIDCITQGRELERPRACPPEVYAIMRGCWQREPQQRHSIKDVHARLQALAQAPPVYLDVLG

IC50 [nM]	SMILES
≤ 10	COc1cc2nc(-c3cnn4ccc(N5CCC[C@@H]5c5cc(F)ccc5F)nc34)oc2cc1OC [Compound 120, (R)-2-(5-(2-(2,5-difluorophenyl)pyrrolidin-1-yl)pyrazolo[1,5-a]pyrimidin-3-yl)-5,6-dimethoxybenzo[d]oxazole]
10 to 50	COc1cnc(OC)n2nc(-c3cnn4ccc(N5CCC[C@@H]5c5cc(F)ccc5F)nc34)nc12 [Compound 181, (R)-2-(5-(2-(2,5-difluorophenyl)pyrrolidin-1-yl)pyrazolo[1,5-a]pyrimidin-3-yl)-5,8-dimethoxy-[1,2,4]triazolo[1,5-c]pyrimidine]
≤ 10	COc1cc2oc(-c3cnn4ccc(N5CCC[C@@H]5c5cc(F)ccc5F)nc34)nc2cc1C#N [Compound 174, (R)-2-(5-(2-(2,5-difluorophenyl)pyrrolidin-1-yl)pyrazolo[1,5-a]pyrimidin-3-yl)-6-methoxybenzo[d]oxazole-5-carbonitrile]
10 to 50	Oc1ccc2cc(-c3cnn4ccc(N5CCC[C@@H]5c5cc(F)ccc5F)nc34)[nH]c2c1 [Compound 186, (R)-2-(5-(2-(2,5-difluorophenyl)pyrrolidin-1-yl)pyrazolo[1,5-a]pyrimidin-3-yl)-1H-indol-6-ol]
≤ 10	Fc1ccc(F)c([C@H]2CCCN2c2ccn3ncc(-c4nc5c([nH]4)COCC5)c3n2)c1 [Compound 188, (R)-2-(5-(2-(2,5-difluorophenyl)pyrrolidin-1-yl)pyrazolo[1,5-a]pyrimidin-3-yl)-3,4,6,7-tetrahydropyrano[3,4-d]imidazole]
10 to 50	Fc1ccc(F)c([C@H]2CCCN2c2ccn3ncc(-c4nnc(C5CCOCC5)[nH]4)c3n2)c1 [Compound 32, (R)-5-(2-(2,5-difluorophenyl)pyrrolidin-1-yl)-3-(5-(tetrahydro-2H-pyran-4-yl)-4H-1,2,4-triazol-3-yl)pyrazolo[1,5-a]pyrimidine]
10 to 50	Fc1ccc(F)c([C@H]2CCCN2c2ccn3ncc(-c4nc5nc6ccccc6nc5[nH]4)c3n2)c1 [Compound 121, (R)-2-(5-(2-(2,5-difluorophenyl)pyrrolidin-1-yl)pyrazolo[1,5-a]pyrimidin-3-yl)-1H-imidazo[4,5-b]quinoxaline]
10 to 50	Fc1ccc(F)c([C@H]2CCCN2c2ccn3ncc(-c4nc5cc6c(cc5o4)OCO6)c3n2)c1 [Compound 131, (R)-6-(5-(2-(2,5-difluorophenyl)pyrrolidin-1-yl)pyrazolo[1,5-a]pyrimidin-3-yl)-[1,3]dioxolo[4′,5′:4,5]benzo[1,2-d]oxazole]
≤ 10	Fc1ccc(F)c([C@H]2CCCN2c2ccn3ncc(-c4nc5ccc(F)nc5[nH]4)c3n2)c1 [Compound 108, (R)-2-(5-(2-(2,5-difluorophenyl)pyrrolidin-1-yl)pyrazolo[1,5-a]pyrimidin-3-yl)-5-fluoro-3H-imidazo[4,5-b]pyridine]
≤ 10	Fc1ccc(F)c([C@H]2CCCN2c2ccn3ncc(-c4nnc(-c5ccc(N6CCOCC6)cc5)[nH]4)c3n2)c1 [Compound 1, (R)-4-(4-(5-(5-(2-(2,5-difluorophenyl)pyrrolidin-1-yl)pyrazolo[1,5-a]pyrimidin-3-yl)-4H-1,2,4-triazol-3-yl)phenyl)morpholine]
10 to 50	Fc1ccc(F)c([C@H]2CCCN2c2ccn3ncc(-c4nc5ccc(SC(F)(F)F)cc5[nH]4)c3n2)c1 [Compound 116, (R)-5-(2-(2,5-difluorophenyl)pyrrolidin-1-yl)-3-(6-((trifluoromethyl)thio)-1H-benzo[d]imidazol-2-yl)pyrazolo[1,5-a]pyrimidine]
≤ 10	Fc1ccc(F)c([C@H]2CCCN2c2ccn3ncc(-c4nc5ncc(Br)nc5[nH]4)c3n2)c1 [Compound 129, (R)-6-bromo-2-(5-(2-(2,5-difluorophenyl)pyrrolidin-1-yl)pyrazolo[1,5-a]pyrimidin-3-yl)-1H-imidazo[4,5-b]pyrazine]

Same assay, conditions: numeric values; read-out: Trk A Kinase IC50

IC50 [nM]	SMILES
2.6	COc1cc2[nH]c(-c3cnn4ccc(N5CCC[C@@H]5c5cccc(F)c5)nc34)nc2cc1C#N [Compound 196, (R)-2-(5-(2-(3-fluorophenyl)pyrrolidin-1-yl)pyrazolo[1,5-a]pyrimidin-3-yl)-6-methoxy-1H-benzo[d]imidazole-5-carbonitrile]
3.92	Fc1ccc(F)c([C@H]2CCCN2c2ccn3ncc(-c4nnc(C5CCC(F)(F)CC5)[nH]4)c3n2)c1 [Compound 41, (R)-3-(5-(4,4-difluorocyclohexyl)-4H-1,2,4-triazol-3-yl)-5-(2-(2,5-difluorophenyl)pyrrolidin-1-yl)pyrazolo[1,5-a]pyrimidine]
0.5	CC(O)c1cc2nc(-c3cnn4ccc(N5CCC[C@@H]5c5cc(F)ccc5F)nc34)[nH]c2cn1 (stereo partly drawn) [Compound 70, 1-(2-(5-((R)-2-(2,5-difluorophenyl)pyrrolidin-1-yl)pyrazolo[1,5-a]pyrimidin-3-yl)-3H-imidazo[4,5-c]pyridin-6-yl)ethan-1-ol]
1.4	OC1(c2nnc(-c3cnn4ccc(N5CCC[C@@H]5c5cc(F)ccc5F)nc34)[nH]2)CC1 [Compound 53, (R)-1-(5-(5-(2-(2,5-difluorophenyl)pyrrolidin-1-yl)pyrazolo[1,5-a]pyrimidin-3-yl)-4H-1,2,4-triazol-3-yl)cyclopropan-1-ol]
0.73	Nc1ncnc2nc(-c3cnn4ccc(N5CCC[C@@H]5c5cc(F)ccc5F)nc34)[nH]c12 [Compound 87, (R)-8-(5-(2-(2,5-difluorophenyl)pyrrolidin-1-yl)pyrazolo[1,5-a]pyrimidin-3-yl)-7H-purin-6-amine]
2.18	Fc1ccc(F)c([C@H]2CCCN2c2ccn3ncc(-c4nc5ccc(OC(F)F)cc5[nH]4)c3n2)c1 [Compound 81, (R)-3-(6-(difluoromethoxy)-1H-benzo[d]imidazol-2-yl)-5-(2-(2,5-difluorophenyl)pyrrolidin-1-yl)pyrazolo[1,5-a]pyrimidine]
3.9	O[C@H](c1ccccc1)c1nnc(-c2cnn3ccc(N4CCC[C@@H]4c4cc(F)ccc4F)nc23)[nH]1 [Compound 42, (R)-(5-(5-((R)-2-(2,5-difluorophenyl)pyrrolidin-1-yl)pyrazolo[1,5-a]pyrimidin-3-yl)-4H-1,2,4-triazol-3-yl)(phenyl)methanol]
0.18	COc1ccc2nc(-c3cnn4ccc(N5CCC[C@@H]5c5cc(F)ccc5F)nc34)[nH]c2n1 [Compound 84, (R)-2-(5-(2-(2,5-difluorophenyl)pyrrolidin-1-yl)pyrazolo[1,5-a]pyrimidin-3-yl)-5-methoxy-3H-imidazo[4,5-b]pyridine]
1.2	Cc1nccc2nc(-c3cnn4ccc(N5CCC[C@@H]5c5cc(F)ccc5F)nc34)[nH]c12 [Compound 103, (R)-2-(5-(2-(2,5-difluorophenyl)pyrrolidin-1-yl)pyrazolo[1,5-a]pyrimidin-3-yl)-4-methyl-3H-imidazo[4,5-c]pyridine]
0.32	COc1cc2nc(-c3cnn4ccc(N5CCC[C@@H]5c5cc(F)ccc5F)nc34)[nH]c2cc1CO [Compound 67, (R)-(2-(5-(2-(2,5-difluorophenyl)pyrrolidin-1-yl)pyrazolo[1,5-a]pyrimidin-3-yl)-5-methoxy-1H-benzo[d]imidazol-6-yl)methanol]
27	N#Cc1cc2[nH]c(-c3cnn4ccc(N5CCC[C@@H]5c5cc(F)ccc5F)nc34)nc2cc1C(F)(F)F [Compound 157, (R)-2-(5-(2-(2,5-difluorophenyl)pyrrolidin-1-yl)pyrazolo[1,5-a]pyrimidin-3-yl)-5-(trifluoromethyl)-1H-benzo[d]imidazole-6-carbonitrile]
1.9	Fc1ccc(F)c([C@H]2CCCN2c2ccn3ncc(-c4nc5ncc(C(F)(F)F)cc5[nH]4)c3n2)c1 [Compound 110, (R)-2-(5-(2-(2,5-difluorophenyl)pyrrolidin-1-yl)pyrazolo[1,5-a]pyrimidin-3-yl)-6-(trifluoromethyl)-1H-imidazo[4,5-b]pyridine]
6.7	Fc1ccc(F)c([C@H]2CCCN2c2ccn3ncc(-c4nc5cccc(OC(F)(F)F)c5[nH]4)c3n2)c1 [Compound 113, (R)-5-(2-(2,5-difluorophenyl)pyrrolidin-1-yl)-3-(7-(trifluoromethoxy)-1H-benzo[d]imidazol-2-yl)pyrazolo[1,5-a]pyrimidine]
0.48	O=C(O)c1cc2[nH]c(-c3cnn4ccc(N5CCC[C@@H]5c5cc(F)ccc5F)nc34)nc2c(F)c1F [Compound 138, (R)-2-(5-(2-(2,5-difluorophenyl)pyrrolidin-1-yl)pyrazolo[1,5-a]pyrimidin-3-yl)-4,5-difluoro-1H-benzo[d]imidazole-6-carboxylic acid]
